“Also recorded” adds a separate entry of the source. Bridges are numbered along the chain shown (N, C = ends). Where no end group is shown, it is not given here. [ ]: non-standard residue; d: D form. pGlu = O=C1CC[C@@H](C(=O)O)N1
Legend:
[1] = system: Escherichia coli ML35; assay: Radial diffusion antibacterial assay, E. coli ML35; assay type: cell-based; details: 5 μl of peptide, 10 to 300 μg/ml, FIG. 7
Description: (§1) FIG. 7. Antibacterial activities of purified beta defensins. Nutrient agar plates seeded with E. coli ML35 (.oval-solid.) or S. aureus 502A (.smallcircle.) were used to assess antibacterial activity of 13 neutrophil beta-defensins in addition to rabbit defensin NP-1, bactenecin dodecapeptide, and indolicidin. Activity is expressed as the diameter of clearing (mm) resulting from the application of 5 μl of peptide at the concentrations shown.
(§2) Antimicrobial assay. Escherichia coli ML35 and Staphylococcus aureus 502A were utilized in a radial diffusion assay recently described by Lehrer et al. (J. Immunol. Meth. 167-173 (1991)). Bacteria were grown to mid-log phase in trypticase soy broth (TSB), diluted into 10 ml of warm (43° C.) 1% agarose containing 3 mg of TSB, buffered with 10 mM sodium phosphate, pH 7.4. Five μl of each peptide solution was pipetted into wells formed with a 4 mm cork bored and allowed to incubate at 37° C. for 3-4 hours. Plates were then overlaid with 10 ml of sterile 1% agar containing 2×TSB. Following incubation for 18 to 24 hours, the diameter of the clear zone surrounding each well was measured using a magnified transilluminator.
(§3) Antimicrobial activity of beta-defensins. The antibacterial activity of each beta-defensin was evaluated using Staphylococcus aureus 502A and Escherichia coil ML35 as test organisms. Using a sensitive radial diffusion assay, each peptide was tested against the two bacterial organisms with beta-defensin concentrations ranging from 10 to 300 μg/ml. The data presented in FIG. 7 reveal the dose-dependent activity of each peptide as measured by the size of the clear zone surrounding the sample well. In most cases, the log of the peptide concentration was linearly related to the diameter of the growth-free zone. […] In most cases, the zone of clearing was greater against E. coli than S. aureus.

[2] = system: E. coli; details: background, earlier report; cited from earlier work
[3] = system: Staphylococcus aureus 502A; assay: Radial diffusion antibacterial assay, S. aureus 502A; assay type: cell-based; details: 5 μl of peptide, 10 to 300 μg/ml, FIG. 7
Description: as §1, §2, §3

[4] = system: S. aureus; details: background, earlier report; cited from earlier work
[5] = system: Cryptococcus neoformans 271A; assay: Fungicidal assay (colony counting), Cryptococcus neoformans 271A; assay type: cell-based; details: 60 minutes, FIG. 16; for fungicidal potency against C. neoformans: 0 to 50 μg/ml; for fungicidal effectiveness against C. neoformans at highest concentration: 50 μg/ml
Description: (§4) Candida albicans 16820 and Cryptococcus neoformans 271A were grown with shaking for 24 hours or days, respectively, at 37° C. in Sabouraud Dextrose Broth (SDB, DIFCO). To obtain midlogarithmic phase organisms, 1.0 ml of overnight culture was inoculated into 50 ml of SDB and incubated for 3 hours (C. albicans) or overnight (C. neoformans) with shaking. The cultures were centrifuged at 10,000 rpm for 10 minutes at 4° C., washed with cold 10 mM phosphate buffer, pH 7.4, and resuspended in cold buffer to a concentration of 1×10^7 cells/ml. The fungicidal assay mixture contained 30 1 of the phosphate buffer, 10 μl (1×10^5 cells) of the fungal stock suspension, and 10 μl of peptide giving final peptide concentrations of 0 to 50 μg/ml. Incubations were carried out at 37° C. for 60 minutes, after which a 30 μl aliquot was removed and diluted 10, 100, and 1000-fold. Duplicate 100 μl samples of each dilution were spread onto SDB plates and incubated for 18 hours at 37° C. Plates were incubated for 1 or 2 days at 37° C. Surviving organisms were quantitated by colony counting using a Darkfield Colony Counter (Quebec).

[6] = system: Candida albicans 16820; assay type: cell-based; details: 0 to 50 μg/ml, 60 minutes, FIG. 15
Description: as §4

[7] = system: E. coli ML35; assay: Bactericidal assay (colony counting), E. coli ML35; assay type: cell-based, Escherichia coli; details: below 50 μg/ml, 30 minutes, FIG. 14
Description: A 1:500 dilution of overnight cultures of E. coli ML35 and S. aureus 502A was incubated with shaking for 2.5 to 3 hours at 37° C. in trypticase soy broth (TSB). The bacteria were centrifuged at 10,000 rpm for 10 minutes at 4 c, washed with cold 10 mM sodium phosphate buffer, pH 7.4 and resuspended in cold phosphate buffer to a concentration of 1×10^7 cells/ml. Solutions of various concentrations of BNBDs were made up in 10 mM sodium phosphate buffer, pH 7.4. The bactericidal assay mixture contained 30 μl of the phosphate buffer, 10 μl (1×10^5 cells) of the bacterial stock solution, and 10 μl of peptide giving final peptide concentrations of 0 to 50 μg/ml. Incubations were carried out at 37° C. for 30 minutes, after which a 30 μl aliquot was removed and diluted 10, 100, and 1000-fold. Duplicate 100 μl samples of each dilution were spread into TSB plates and incubated for 18 hours at 37° C. Colonies were counted with the Darkfield Colony Counter (Quebec).

Compound	antibacterial activity (diameter of clearing) against E. coli [1]	antibacterial activity (diameter of clearing) against S. aureus [3]	other results
CC[C@H](C)[C@H](N)C(=O)N[C@@H](CC(C)C)C(=O)N1CCC[C@H]1C(=O)N[C@@H](Cc1c[nH]c2ccccc12)C(=O)N[C@@H](CCCCN)C(=O)N[C@@H](Cc1c[nH]c2ccccc12)C(=O)N1CCC[C@H]1C(=O)N[C@@H](Cc1c[nH]c2ccccc12)C(=O)N[C@@H](Cc1c[nH]c2ccccc12)C(=O)N1CCC[C@H]1C(=O)N[C@@H](Cc1c[nH]c2ccccc12)C(=O)N[C@@H](CCCNC(=N)N)C(=O)N[C@@H](CCCNC(=N)N)C(N)=O [indolicidin, reference compound]	the most active peptide against E. coli	nearly as active as rabbit NP-1	bactericidal activity against E. coli [2]: potent bactericidal activity; bactericidal activity against S. aureus [4]: potent bactericidal activity
BNBD-1: bovine neutrophil beta-defensin 1, 38 residues, purified from neutrophil granules; sequence in FIG. 5 (SEQ ID NO: 1) (DFASCHTNGGICLPNRCPGHMIQIGICFRPRVKCCRSW; not fully specified (bridges); ends and bridges not checked)		all but BNBD-1 and BNBD-5 were active	
BNBD-2: bovine neutrophil beta-defensin 2, 40 residues; identical to BNBD-3 without the pyroglutamyl-glycine extension (SEQ ID NO: 2) (VRNHVTCRINRGFCVPIRCPGRTRQIGTCFGPRIKCCRSW; disulfide 14-29, 19-37, 7-36)	equivalent antibacterial activity	equivalent antibacterial activity	
BNBD-5: bovine neutrophil beta-defensin 5, 40 residues (SEQ ID NO: 5)		all but BNBD-1 and BNBD-5 were active	
BNBD-7: bovine neutrophil beta-defensin 7, 40 residues (SEQ ID NO: 7)	most active beta-defensins	most active beta-defensins	
BNBD-8: bovine neutrophil beta-defensin 8, 38 residues; identical to BNBD-9 without the pyroglutamyl-glycine extension (SEQ ID NO: 8)	differ in antibacterial potency	differ in antibacterial potency	
BNBD-9: bovine neutrophil beta-defensin 9, 40 residues, N-terminal pyroglutamyl (SEQ ID NO: 9) ([pGlu]GVRNFVTCRINRGFCVPIRCPGHRRQIGTCLGPQIKCCR; also: cyclic, type of ring not given here)	most active beta-defensins; also recorded: the greater in vitro activity	most active beta-defensins; also recorded: the greater in vitro activity	
BNBD-11: bovine neutrophil beta-defensin 11, 38 residues (SEQ ID NO: 11) (GPLSCRRNGGVCIPIRCPGPMRQIGTCFGRPVKCCRSW; disulfide 12-27, 17-35, 5-34; ends not checked)			fungicidal potency against C. neoformans [5]: substantially less active; fungicidal activity against C. albicans [6]: completely inactive
BNBD-12: bovine neutrophil beta-defensin 12, 38 residues; disulfide connectivities determined (SEQ ID NO: 12) (GPLSCGRNGGVCIPIRCPVPMRQIGTCFGRPVKCCRSW; disulfide 12-27, 17-35, 5-34)	most active beta-defensins; also recorded: approximately equal	most active beta-defensins; also recorded: approximately equal	
H-SGISGPLSCGRNGGVCIPIRCPVPMRQIGTCFGRPVKCCRSW (disulfide 9-38, 16-31, 21-39) [BNBD-13]	most active beta-defensins; also recorded: approximately equal	most active beta-defensins; also recorded: approximately equal	fungicidal effectiveness against C. neoformans at highest concentration [5]: equally effective
[pGlu]GVRNHVTCRINRGFCVPIRCPGRTRQIGTCFGPRIKCCRSW (disulfide 9-38, 16-31, 21-39) [BNBD-3]	equivalent antibacterial activity	equivalent antibacterial activity	fungicidal potency against C. neoformans [5]: the most potent; bactericidal potency against E. coli at lower concentrations [7]: the greatest
[pGlu]RVRNPQSCRWNMGVCIPFLCRVGMRQIGTCFGPRVPCCRR (disulfide 9-38, 16-31, 21-39) [BNBD-4]			fungicidal effectiveness against C. neoformans at highest concentration [5]: equally effective
